Where a chain is given by its changes, count along the chain named. Names and notes keep the numbering of the source.

For experiment [1], the target named is T1, B. subtilis ArsC (Bs_ArsC), reduced state re-ArsC (Bacillus subtilis, UniProt P45947).
T1 construct: full-length, 139 residues; recombinant, prepared as previously reported; reduced state (C10, C82, C89 free thiols)
T1 sequence (P45947 1-139): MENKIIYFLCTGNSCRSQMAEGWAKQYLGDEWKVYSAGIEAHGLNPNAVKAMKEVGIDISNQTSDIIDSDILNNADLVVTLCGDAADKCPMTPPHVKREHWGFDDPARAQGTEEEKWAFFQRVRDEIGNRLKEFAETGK
Briefly: isothermal titration calorimetry. In kind it is binding.

Experiment [2] concerns the target T2, B. subtilis arsenate reductase ArsC_C10SC15AC82S mutant (ArsC in the Trx-complexed state) (B. subtilis, UniProt P45947 1-139, C10S | C15A | C82S, C89 forms an intermolecular disulfide bond with Trx (C89^ArsC-C29^Trx); 15N-labeled in one sample, unlabeled in the other).
T2 construct: Thioredoxin-coupled arsenate reductase ArsC, Bacillus subtilis; triple mutant C10S/C15A/C82S used to trap the mixed-disulfide complex; also called c-ArsC; source: purity greater than 95% by SDS-PAGE
T2 sequence: T1 sequence (P45947 1-139) with C10S, C15A, C82S
Put plainly: preparation of a mixed-disulfide complex (DTNB incubation), studied by NMR (15N CPMG RD, CEST); Trx_C32S and ArsC_C10SC15AC82S linked by an intermolecular disulfide with the 5,5-dithiobis(2-nitrobenzoic acid) incubation protocol; NMR samples in 20 mM Tris-HCl (pH 6.85), 40 mM KCl, 20 mM urea, 20 mM Na2SO4; 25 °C. Conditions: both partners purified.

For `O=S(=O)(O)O` [sulfate], the Kd (commonly the concentration at which binding is half-saturated) in experiment [1] is 700 µM.

B1: B. subtilis thioredoxin Trx_C32S mutant (Trx in the ArsC-complexed state) (enzyme)
chain: MAIVKATDQSFSAETSEGVVLADFWAPWCGPSKMIAPVLEELDQEMGDKLKIVKIDVDENQETAGKYGVMSIPTLLVLKDGEVVETSVGFKPKEALQELVNKHL
modifications: C29 in the mixed disulfide with ArsC C89 (C89^ArsC-C29^Trx); 15N-labeled in one sample, unlabeled in the other
notes: Thioredoxin (Trx), Bacillus subtilis; C32S mutant used to trap the mixed-disulfide complex; also called c-Trx; source: purity greater than 95% by SDS-PAGE
As to B1, the binding result in experiment [2] is recorded as “binds”.

The values above are taken from article PMC6193951, “Intra- and inter-protein couplings of backbone motions underlie protein thiol-disulfide exchange cascade” (Scientific Reports, 2018).
